Values quoted from earlier work as cited in US12414914B2, “Docetaxel composition for injection and preparation method therefor” (BIKA BIOTECHNOLOGY (GUANGZHOU) CO., LTD, priority 2018, dated 2025).

What was measured:
microtubules [1] = test system: microtubules
microtubules [2] = conditions: compared to paclitaxel
cancer cells = conditions: compared to paclitaxel

stability in alkaline conditions (alkaline conditions): unstable in alkaline conditions | solubility in ethanol (ethanol): soluble in ethanol | solubility in water (water): practically insoluble in water
SMILES: CC(=O)O[C@@]12CO[C@@H]1C[C@H](O)[C@@]1(C)C(=O)[C@H](O)C3=C(C)[C@@H](OC(=O)[C@H](O)[C@@H](NC(=O)OC(C)(C)C)c4ccccc4)C[C@@](O)([C@@H](OC(=O)c4ccccc4)[C@H]21)C3(C)C (relative stereo) [docetaxel, [2aR-(2aα, 4β, 4aβ, 6β, 9α, (aR*, βS*), 11α, 12α, 12aα, 12bα)]-β-[[(1,1-dimethylethoxy)carbonyl]amino]-α-hydroxybenzene propanoic acid [12b-acetyloxy-12-benzoyloxy-2a, 3,4,4a, 5,6,9, 10, 11, 12, 12a, 12b-dodecahydro-4,6, 11-trihydroxy-4a, 8, 13, 13-tetramethyl-5-oxo-7, 11-methano-1H-cyclodeca-[3, 4]benz [1,2-b]oxet-9-yl] ester]
Affinity to microtubules compared to paclitaxel (microtubules [1]): 2 times higher | activity as microtubule stabilizer and assembly promoter relative to paclitaxel (microtubules [2]): twice as active as paclitaxel | activity as microtubule-depolymerizing inhibitor relative to paclitaxel (microtubules [2]): twice as active as paclitaxel | anti-tumor activity in vitro relative to paclitaxel (cancer cells): 1.3˜12 times more active
